Measured values published in PMC3403872, “Contrasting effects of linaclotide and lubiprostone on restitution of epithelial cell barrier properties and cellular homeostasis after exposure to cell stressors” (BMC Pharmacology, 2012).
Where no end group is shown, it is not given here.

Legend:
[1] = test system: T84 cells
[2] = test system: T84 cells; format: cell-based
[3] = test system: T84 cells; experiment: FITC-LPS flux across T84 cells; format: cell-based; conditions: IFN-γ 100 ng/ml
[4] = test system: pig jejunum; experiment: short-circuit current (Cl− secretion) of pig jejunal mucosa in Ussing chambers; set-up: species or system Yorkshire crossbred pigs; conditions: 1 μM, n = 4
[5] = test system: pig jejunum; experiment: TER of pig jejunal mucosa in Ussing chambers; set-up: species or system Yorkshire crossbred pigs
[6] = test system: T84 cells; experiment: plasma membrane potential of T84 cells (DiBAC4(3)); format: cell-based; conditions: different concentrations, p wrt 1 nM drug, n = 5
[7] = test system: patients with IBS-C and CIC; conditions: human, in vivo; cited from earlier work
[8] = set-up: method as in PMID 16603730; conditions: ref [19],[20]; cited from earlier work
[9] = test system: occludin; experiment: Western analysis of occludin in sucrose density gradient membrane fractions; set-up: species or system Yorkshire crossbred pigs; conditions: ischemic pig jejunum, n = 3 experiments
[10] = test system: T84 cells; experiment: 70,000 Da rhodamine-dextran flux across T84 cells; format: cell-based; conditions: 200 nM active linaclotide, 200 nM guanylin, 100 nM lubiprostone, 3 days, then dextran 24 h, n = 3
[11] = test system: T84 cells; format: cell-based; remark: listed apart in the source
[12] = test system: patients with IBS-C; conditions: ref [21]; cited from earlier work
[13] = test system: pig jejunum; experiment: mucosal-to-serosal 3H-mannitol flux in pig jejunal mucosa; set-up: species or system Yorkshire crossbred pigs; conditions: n = 3
[14] = test system: T84 cells; experiment: 3,000 Da FITC-dextran flux across T84 cells; format: cell-based; conditions: 200 nM active linaclotide, 200 nM guanylin, 100 nM lubiprostone, 3 days, then dextran 24 h, n = 3
[15] = test system: ClC-2 Cl- channels; set-up: method as in PMID 15213059, PMID 18511742; conditions: apical membrane of epithelial cells; ref [17],[18]; cited from earlier work
[16] = test system: T84 cells; experiment: mitochondrial membrane potential of T84 cells (JC-1); format: cell-based
[17] = test system: porcine intestine; set-up: method as in PMID 17053162, PMID 18976652, PMID 18932279; conditions: porcine intestine models; ref [22]-[24]; cited from earlier work
[18] = test system: guanylate cyclase-C (GC-C); conditions: cited from earlier work
[19] = test system: K+ channels; conditions: cited from earlier work
[20] = test system: rodent animal models; conditions: in vivo; cited from earlier work

Molecule: Nc1nc2c(nc(Br)n2[C@@H]2O[C@@H]3COP(=O)(O)O[C@H]3[C@H]2O)c(=O)[nH]1 [8BrcGMP, 8-bromo cGMP]
- effect on T84 TER, no stressor [1]: reduced T84 epithelial cell TER significantly
- effects against IFN-γ [1]: effects similar to active linaclotide

Molecule: CCCCC[C@H](O)/C=C/[C@H]1[C@H](O)CC(=O)[C@@H]1CCCCCCC(=O)O [PGE1, Prostaglandin E1]
- effect on [Ca2+]i [2]: significantly increased

Molecule: CCCCC(F)(F)[C@@]1(O)CC[C@H]2[C@@H](CC(=O)[C@@H]2CCCCCCC(=O)O)O1 [lubiprostone]
- IFN-γ-counteracting effect on FITC-LPS flux ([3]; 200 nM active linaclotide or 100 nM lubiprostone, 3 days, then LPS 24 h, n = 3): ~89%
- effect on Isc, control intestine [4]: significant and similar increases in Isc
- ΔTER, control intestine ([5]; control pig jejunum, 1000 nM (1 μM), control ΔTER 2.1±1.8, n = 5, p < 0.01, mean ± S.E.): 26.3 ± 6.2 % mean basal
- effect on TER after ischemia ([5]; ischemic pig jejunum (45 min ischemia), n = 5): large, significant increase in TER
- effect on plasma membrane potential [6]: significantly hyperpolarized
- clinical effect on abdominal discomfort and pain [7]: ameliorates abdominal discomfort and pain
- clinical efficacy of lubiprostone (symptoms) [7]: significantly improving symptoms associated with CIC and IBS-C
- intestinal secretion and bowel movements [8]: increasing intestinal salt and water secretion, promoting bowel movements
- effect on occludin after ischemia [9]: major return of occludin to detergent-insoluble fractions
- effect on mucosal to serosal 70,000 Da rhodamine-dextran flux [10]: decreases of these fluxes
- IFN-γ-counteracting effect on occludin/actin ratio [11]: ~43.8%
- effect on visceral pain thresholds [12]: without influencing visceral pain thresholds
- effect on 3H-mannitol flux, control intestine ([13]; control pig jejunum, 60 min flux period): neither compound had any effect
- effect on 3H-mannitol flux after ischemia ([13]; ischemic pig jejunum (45 min ischemia)): decrease in ^3H-mannitol fluxes
- effect on mucosal to serosal 3,000 Da FITC-dextran flux [14]: decreases of these fluxes
- ClC-2 activation [15]: activates ClC-2 Cl^- channels
- effect on mitochondrial membrane potential, no stressor ([16]; 200 nM active linaclotide, 100 nM lubiprostone, 3 days): no effect on the mitochondrial membrane potential
- IFN-γ-counteracting effect on mitochondrial membrane potential ([16]; IFN-γ 100 ng/ml, 200 nM active linaclotide or 100 nM lubiprostone, 3 days, n = 8): ~77.8%
- effect on T84 TER, no stressor [1]: slight increase in TER
- effect of compound alone on measured T84 parameters ([1]; T84 cells, no stressor, barrier function and mitochondrial membrane potential parameters together): no negative effects on the measured parameters
- IFN-γ-counteracting effect on TER ([1]; T84 cells, IFN-γ 100 ng/ml, 200 nM active linaclotide or 100 nM lubiprostone, n = 3, Δlin vs Δlubi p < 0.0005): ca. 27.3%
- effect on TNF-α-induced TER change ([1]; T84 cells, TNF-α 50 ng/ml, 200 nM active linaclotide or 100 nM lubiprostone): partially protected/repaired barrier function
- barrier repair after ischemia [17]: promotes repair of barrier properties which are disrupted by ischemia

Molecule: CCC(=O)C(CC(C)N(C)C)(c1ccccc1)c1ccccc1 (stereo not shown) [methadone]
- effect of methadone on linaclotide's effect on TER after TNF-α [1]: no effect
- effect of methadone on lubiprostone's protection/repair of TER after TNF-α [1]: inhibited completely

Molecule: guanylin: well established GC-C activator, Sigma-Aldrich (PGTCEICAYAACTGC; ends and bridges not checked; cysteine pairing not given here; UniProt Q02747 101-115, looked up)
- GC-C activation [18]: activates guanylate cyclase-C (GC-C) leading to increased [cGMP]i
- effect on mucosal to serosal 70,000 Da rhodamine-dextran flux [10]: increased mucosal to serosal fluxes
- effect on mucosal to serosal 3,000 Da FITC-dextran flux [14]: increased mucosal to serosal fluxes
- K+ channel activation [19]: activate K^+ channels
- effect on T84 TER, no stressor [1]: reduced T84 epithelial cell TER significantly
- effects against IFN-γ [1]: effects similar to active linaclotide

Molecule: linaclotide
- intestinal fluid secretion, transit and pain [20]: stimulated intestinal fluid secretion and transit time and reduced pain
- GC-C activation [18]: activates guanylate cyclase-C (GC-C) leading to increased [cGMP]i
- clinical efficacy of linaclotide [7]: improve bowel symptoms, transit time and abdominal discomfort or pain

Molecule: uroguanylin: activates guanylate cyclase-C (NDDCELCVNVACTGCL; ends and bridges not checked; cysteine pairing not given here; UniProt Q16661 97-112, looked up)
- GC-C activation [18]: activates guanylate cyclase-C (GC-C) leading to increased [cGMP]i
- K+ channel activation [19]: activate K^+ channels

B1: Interferon-γ (protein, UniProt P01579 24-161, looked up)
Interferon gamma: QDPYVKEAENLKKYFNAGHSDVADNGTLFLGILKNWKEESDRKIMQSQIVSFYFKLFKNFKDDQSIQKSVETIKEDMNVKFFNSNKKKRDDFEKLTNYSVTDLNVQRKAIHELIQVMAELSPAAKTGKRKRSQMLFRG
- stressor effect on mucosal to serosal FITC-LPS flux ([3]; p < 0.0005): increased mucosal to serosal FITC-LPS flux
- stressor effect on occludin/actin ratio ([11]; T84 cells, IFN-γ 100 ng/ml, p < 0.0005): decreased the occludin/actin ratio
- stressor effect on mitochondrial membrane potential ([16]; IFN-γ 100 ng/ml, p < 0.0005): decreased the mitochondrial membrane potential
- stressor effect on TER [1]: significantly reduced TER
